What was measured:
[1] = system: CTV-1 (T-Lymphoblastic Leukemia); assay: Bliss excess, mean over the matrix (fraction); higher = more synergy
Procedure, shortened: (§1)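 Cell lines in DMEM/F12 or RPMI with 10% FBS were plated in 1536-well plates, held 24 hours at 37°C, 5% CO2, then given two-drug dose matrices for 72 hours (DMSO typically 0.2%). Viability was read by CellTiter-Glo 2.0 luminescence and scaled as inhibition from 0 (vehicle wells) to 1 (blank wells). Combination Emax is the second-highest inhibition in the matrix; Bliss excess is observed combination effect minus expected EA + EB − EA·EB, EA and EB being single-agent effects.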

[2] = system: G-292-Clone-A141B1 (Osteosarcoma); assay: as above
Procedure, shortened: as §1

[3] = system: KARPAS-1106P (B-Cell Non-Hodgkin's Lymphoma); assay: as above
Procedure, shortened: as §1

[4] = system: KATOIII (Gastric Carcinoma); assay: as above
Procedure, shortened: as §1

[5] = system: KM-H2 (Hodgkin's Lymphoma); assay: as above
Procedure, shortened: as §1

[6] = system: NCI-H1694 (Small Cell Lung Carcinoma); assay: as above
Procedure, shortened: as §1

NCI-H2595 (Mesothelioma) [7] = assay: as above
Procedure, shortened: as §1

RH-1 (Ewing's Sarcoma) = assay: as above
Procedure, shortened: as §1

[8] = system: SUIT-2 (Pancreatic Carcinoma); assay: as above
Procedure, shortened: as §1

[9] = system: SW1990 (Pancreatic Carcinoma); assay: as above
Procedure, shortened: as §1

[10] = system: TGBC24TKB (Biliary Tract Carcinoma); assay: as above
Procedure, shortened: as §1

[11] = system: CTV-1 (T-Lymphoblastic Leukemia); assay: combination Emax (second highest fraction inhibited in the dose matrix, 72 h); higher = more inhibition; extreme values may be limits of the assay
Procedure, shortened: as §1

[12] = system: DMS-273 (Small Cell Lung Carcinoma); assay: as above
Procedure, shortened: as §1

[13] = system: G-292-Clone-A141B1 (Osteosarcoma); assay: as above
Procedure, shortened: as §1

[14] = system: HCC2157 (Breast Carcinoma); assay: as above
Procedure, shortened: as §1

IGR-1 (Melanoma) = assay: as above
Procedure, shortened: as §1

[15] = system: KARPAS-1106P (B-Cell Non-Hodgkin's Lymphoma); assay: as above
Procedure, shortened: as §1

[16] = system: NALM-6 (B-Lymphoblastic Leukemia); assay: as above
Procedure, shortened: as §1

NCI-H2595 (Mesothelioma) [17] = assay: as above
Procedure, shortened: as §1

[18] = system: SW1088 (Low Grade Glioma); assay: as above
Procedure, shortened: as §1
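Throughout, for Bliss excess, mean over the matrix: after 72 h of two-drug dosing.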

SMILES: CC1(C)CCC(CN2CCN(c3ccc(C(=O)NS(=O)(=O)c4ccc(NCC5CCOCC5)c([N+](=O)[O-])c4)c(Oc4cnc5[nH]ccc5c4)c3)CC2)=C(c2ccc(Cl)cc2)C1 [Venetoclax] + Cc1cc2ncnn2cc1Nc1ncc2c(n1)n(C1CCOCC1)c(=O)n2C [AZD7648] (first compound max 1 µM, 7x7, partner max 10 µM)
- Bliss excess [1]: -0.0249
- Bliss excess [2]: -0.037
- Bliss excess [3]: -0.0672
- Bliss excess [4]: -0.0076
- Bliss excess [5]: -0.0322
- Bliss excess [6]: -0.0247
- Bliss excess (NCI-H2595 (Mesothelioma) [7]): -0.0185
- Bliss excess (RH-1 (Ewing's Sarcoma)): 0.0029
- Bliss excess [8]: -0.0271
- Bliss excess [9]: -0.0426
- Bliss excess [10]: 0.0423
- combination Emax [11]: 0.362
- combination Emax [12]: 0.482
- combination Emax [13]: 0.221
- combination Emax [14]: 0.628
- combination Emax (IGR-1 (Melanoma)): 0.174
- combination Emax [15]: 0.458
- combination Emax [16]: 0.789
- combination Emax (NCI-H2595 (Mesothelioma) [17]): 0.228
- combination Emax [18]: 0.341

SMILES: CC1(C)CCC(CN2CCN(c3ccc(C(=O)NS(=O)(=O)c4ccc(NCC5CCOCC5)c([N+](=O)[O-])c4)c(Oc4cnc5[nH]ccc5c4)c3)CC2)=C(c2ccc(Cl)cc2)C1 [Venetoclax] + CCN(CCO)CCCOc1ccc2c(Nc3cc(CC(=O)Nc4cccc(F)c4)[nH]n3)ncnc2c1 [AZD2811] (first compound max 1 µM, 7x7, partner max 1 µM)
- Bliss excess [1]: -0.0281
- Bliss excess [2]: -0.0413
- Bliss excess [3]: -0.0125
- Bliss excess [4]: -0.0226
- Bliss excess [5]: 0.0106
- Bliss excess [6]: 0.0477
- Bliss excess (NCI-H2595 (Mesothelioma) [7]): -0.0146
- Bliss excess (RH-1 (Ewing's Sarcoma)): -0.0548
- Bliss excess [8]: -0.0135
- Bliss excess [9]: 0.0024
- Bliss excess [10]: 0.005
- combination Emax [11]: 0.184
- combination Emax [12]: 0.806
- combination Emax [13]: 0.235
- combination Emax [14]: 0.762
- combination Emax (IGR-1 (Melanoma)): 0.349
- combination Emax [15]: 0.46
- combination Emax [16]: 0.97
- combination Emax (NCI-H2595 (Mesothelioma) [17]): 0.611
- combination Emax [18]: 0.474

SMILES: Cc1cc2ncnn2cc1Nc1ncc2c(n1)n(C1CCOCC1)c(=O)n2C [AZD7648] + CCN(CCO)CCCOc1ccc2c(Nc3cc(CC(=O)Nc4cccc(F)c4)[nH]n3)ncnc2c1 [AZD2811] (first compound max 10 µM, 7x7, partner max 1 µM)
- Bliss excess [1]: 0.0709
- Bliss excess [2]: 0.0147
- Bliss excess [3]: 0.0642
- Bliss excess [4]: -0.0526
- Bliss excess [5]: 0.0507
- Bliss excess [6]: 0.0483
- Bliss excess (NCI-H2595 (Mesothelioma) [7]): 0.0183
- Bliss excess (RH-1 (Ewing's Sarcoma)): -0.0385
- Bliss excess [8]: -0.0169
- Bliss excess [9]: -0.0199
- Bliss excess [10]: -0.0157
- combination Emax [11]: 0.375
- combination Emax [12]: 0.82
- combination Emax [13]: 0.291
- combination Emax [14]: 0.783
- combination Emax (IGR-1 (Melanoma)): 0.0874
- combination Emax [15]: 0.526
- combination Emax [16]: 0.771
- combination Emax (NCI-H2595 (Mesothelioma) [17]): 0.203
- combination Emax [18]: 0.686

SMILES: COc1nnc2ccc(N3CCC(c4ccc(OCCN5CCN(C)C(=O)[C@H]5C)cc4)CC3)nn12 [AZD5153] + CCN(CCO)CCCOc1ccc2c(Nc3cc(CC(=O)Nc4cccc(F)c4)[nH]n3)ncnc2c1 [AZD2811] (first compound max 1 µM, 7x7, partner max 1 µM)
- Bliss excess [1]: 0.0988
- Bliss excess [2]: -0.0263
- Bliss excess [3]: 0.019
- Bliss excess [4]: -0.0288
- Bliss excess [5]: 0
- Bliss excess [6]: 0.0041
- Bliss excess (NCI-H2595 (Mesothelioma) [7]): -0.0227
- Bliss excess (RH-1 (Ewing's Sarcoma)): 0.0025
- Bliss excess [8]: -0.0399
- Bliss excess [9]: -0.0477
- Bliss excess [10]: -0.0349
- combination Emax [11]: 0.974
- combination Emax [12]: 0.901
- combination Emax [13]: 0.366
- combination Emax [14]: 1
- combination Emax (IGR-1 (Melanoma)): 0.522
- combination Emax [15]: 0.741
- combination Emax [16]: 0.938
- combination Emax (NCI-H2595 (Mesothelioma) [17]): 0.465
- combination Emax [18]: 0.519

SMILES: Cc1c2c(nn1C)CSCc1cc(n(C)n1)CSc1cc(c3ccccc3c1)OCCCc1c(C(=O)O)n(C)c3c-2c(Cl)ccc13 [AZD5991] + C1CN(CCC1(C(=O)N[C@@H](CCO)C2=CC=C(C=C2)Cl)N)C3=NC=NC4=C3C=CN4 [Capivasertib] (first compound max 1 µM, 7x7, partner max 3 µM)
- Bliss excess [1]: 0.0027
- Bliss excess [2]: -0.0115
- Bliss excess [3]: 0.0188
- Bliss excess [4]: -0.0267
- Bliss excess [5]: -0.0052
- Bliss excess [6]: -0.0142
- Bliss excess (NCI-H2595 (Mesothelioma) [7]): 0.0093
- Bliss excess (RH-1 (Ewing's Sarcoma)): 0.0157
- Bliss excess [8]: -0.0304
- Bliss excess [9]: -0.0314
- Bliss excess [10]: 0.0066
- combination Emax [11]: 0.337
- combination Emax [12]: 0.987
- combination Emax [13]: 0.248
- combination Emax [14]: 0.992
- combination Emax (IGR-1 (Melanoma)): 0.26
- combination Emax [15]: 0.901
- combination Emax [16]: 0.694
- combination Emax (NCI-H2595 (Mesothelioma) [17]): 0.311
- combination Emax [18]: 0.527

SMILES: Cc1c2c(nn1C)CSCc1cc(n(C)n1)CSc1cc(c3ccccc3c1)OCCCc1c(C(=O)O)n(C)c3c-2c(Cl)ccc13 [AZD5991] + CN(C)CCCOc1ccc(-c2ccc3ncc4c(c3c2)n(C2CCOCC2)c(=O)n4C)cn1 [AZD0156] (first compound max 1 µM, 7x7, partner max 1 µM)
- Bliss excess [1]: 0.0012
- Bliss excess [2]: -0.025
- Bliss excess [3]: -0.0352
- Bliss excess [4]: -0.0068
- Bliss excess [5]: -0.0139
- Bliss excess [6]: 0.0033
- Bliss excess (NCI-H2595 (Mesothelioma) [7]): -0.0082
- Bliss excess (RH-1 (Ewing's Sarcoma)): 0.0081
- Bliss excess [8]: 0.0035
- Bliss excess [9]: 0.0159
- Bliss excess [10]: -0.0044
- combination Emax [11]: 0.301
- combination Emax [12]: 0.976
- combination Emax [13]: 0.332
- combination Emax [14]: 0.98
- combination Emax (IGR-1 (Melanoma)): 0.327
- combination Emax [15]: 0.925
- combination Emax [16]: 0.408
- combination Emax (NCI-H2595 (Mesothelioma) [17]): 0.328
- combination Emax [18]: 0.242

SMILES: CN(CCO)CC[C@H](CSc1ccccc1)Nc1ccc(S(=O)(=O)NC(=O)c2ccc(N3CCC([C@@H](O)c4ccccc4-c4ccc(Cl)cc4)CC3)cc2)cc1S(=O)(=O)C(F)(F)F [AZD4320] + C1CN(CCC1(C(=O)N[C@@H](CCO)C2=CC=C(C=C2)Cl)N)C3=NC=NC4=C3C=CN4 [Capivasertib] (first compound max 1 µM, 7x7, partner max 3 µM)
- Bliss excess [1]: -0.0365
- Bliss excess [2]: -0.0041
- Bliss excess [3]: -0.0259
- Bliss excess [4]: -0.0385
- Bliss excess [5]: -0.0205
- Bliss excess [6]: 0.0202
- Bliss excess (NCI-H2595 (Mesothelioma) [7]): -0.0458
- Bliss excess (RH-1 (Ewing's Sarcoma)): 0.0468
- Bliss excess [8]: -0.054
- Bliss excess [9]: -0.049
- Bliss excess [10]: 0.0015
- combination Emax [11]: 0.404
- combination Emax [12]: 0.713
- combination Emax [13]: 0.754
- combination Emax [14]: 0.991
- combination Emax (IGR-1 (Melanoma)): 0.256
- combination Emax [15]: 0.16
- combination Emax [16]: 0.983
- combination Emax (NCI-H2595 (Mesothelioma) [17]): 0.151
- combination Emax [18]: 0.423

From the supplement of paper PMC11061612
